≈ marks a conversion by molar mass, not a printed value.
Key:
Experiment in all cases: ≥ marks a high value that may be exact or a test limit, other limits are often not marked, values filed in µg/mL are converted to µM
Escherichia coli UB1005 = test system: Escherichia coli UB1005
[1] = test system: Pseudomonas aeruginosa H103
[2] = test system: Salmonella enterica serovar Typhimurium
[3] = test system: Enterococcus faecalis ATCC 29212
[4] = test system: Staphylococcus epidermidis
[5] = test system: Staphylococcus aureus ATCC 25923
Candida albicans = test system: Candida albicans
[6] = test system: Escherichia coli ATCC 25726
[7] = test system: Pseudomonas aeruginosa KCTC 1637
[8] = test system: Escherichia coli KCTC 1682
[9] = test system: Staphylococcus aureus KCTC 1621
[10] = test system: Salmonella typhimurium KCTC 1926
[11] = test system: Staphylococcus epidermidis KCTC 1917
[12] = test system: Bacillus subtilis KCTC 3068
Escherichia coli BW25113 = test system: Escherichia coli BW25113
[13] = test system: Escherichia coli ATCC 25922
[14] = test system: Candida albicans ATCC 90028

SMILES	MIC (Escherichia coli UB1005) [µM]	MIC [1] [µM]	MIC [2] [µM]	MIC [3] [µM]	MIC [4] [µM]	MIC [5] [µM]	MIC (Candida albicans) [µM]	MIC [6] [µM]	also measured
CC[C@H](C)[C@H](NC(=O)[C@H](CCCCN)NC(=O)[C@H](Cc1c[nH]c2ccccc12)NC(=O)[C@H](CCCCN)NC(=O)[C@@H](N)Cc1ccc(O)cc1)C(=O)N[C@@H](CCCN=C(N)N)C(=O)N[C@@H](Cc1ccccc1)C(=O)N[C@@H](CCCCN)C(=O)N[C@@H](CCCN=C(N)N)C(=O)O [YKWKIRFKR]	4.1 (≈ 5.43 µg/mL)	≥ 32.6	8.2 (≈ 10.9 µg/mL)	16.3 (≈ 21.6 µg/mL)	1 (≈ 1.32 µg/mL)	4.1 (≈ 5.43 µg/mL)	16.3 (≈ 21.6 µg/mL)	–	–
CSCC[C@H](NC(=O)[C@H](CC(C)C)NC(=O)[C@@H]1CCCN1C(=O)CNC(=O)[C@H](CC(C)C)NC(=O)[C@H](CC(C)C)NC(=O)[C@H](C)NC(=O)CNC(=O)[C@H](CC(C)C)NC(=O)[C@@H](N)Cc1ccccc1)C(=O)N[C@@H](CC(N)=O)C(=O)N[C@@H](CC(C)C)C(=O)N[C@@H](CC(C)C)C(=O)N[C@@H](CCC(N)=O)C(N)=O [FLGALLGPLMNLLQ]	–	–	–	–	–	> 160	–	≥ 160	–
CC[C@H](C)[C@H](NC(=O)[C@H](CCCN=C(N)N)NC(=O)[C@H](CCCN=C(N)N)NC(=O)[C@H](CC(C)C)NC(=O)[C@@H](N)CCCN=C(N)N)C(=O)N[C@H](C(=O)N[C@H](C(=O)N[C@H](C(=O)N[C@@H](CCCN=C(N)N)C(=O)N[C@H](C(=O)N[C@@H](CCCN=C(N)N)C(=O)N[C@@H](CCCN=C(N)N)C(N)=O)C(C)C)[C@@H](C)CC)C(C)C)C(C)C [RLRRIVVIRVRR]	1.26 (≈ 2 µg/mL)	5.03 (≈ 8 µg/mL)	5.03 (≈ 8 µg/mL)	2.51 (≈ 4 µg/mL)	1.26 (≈ 2 µg/mL)	5.03 (≈ 8 µg/mL)	19.5 (≈ 31 µg/mL)	–	MIC [7]: 3.93 µM (≈ 6.25 µg/mL); MIC [8]: 7.85 µM (≈ 12.5 µg/mL); MIC [9]: 1.97 µM (≈ 3.13 µg/mL); MIC [10]: 0.98 µM (≈ 1.56 µg/mL); MIC [11]: 1.97 µM (≈ 3.13 µg/mL); MIC [12]: 3.93 µM (≈ 6.25 µg/mL)
CC[C@H](C)[C@H](NC(=O)[C@H](CCCN=C(N)N)NC(=O)[C@@H]1CCCN1C(=O)[C@@H](NC(=O)[C@H](CCCN=C(N)N)NC(=O)[C@@H]1CCCN1C(=O)[C@@H](NC(=O)[C@@H]1CCCN1C(=O)[C@H](Cc1ccccc1)NC(=O)[C@@H]1CCCN1C(=O)[C@@H]1CCCN1C(=O)[C@@H]1CCCN1C(=O)[C@H](Cc1ccccc1)NC(=O)[C@H](CCCN=C(N)N)NC(=O)[C@@H]1CCCN1C(=O)[C@@H](N)CCCN=C(N)N)[C@@H](C)CC)[C@@H](C)CC)C(=O)N1CCC[C@H]1C(=O)O [RPRFPPPFPIPRIPRIP]	–	–	–	–	–	–	–	–	MIC (Escherichia coli BW25113): ≥ 64 µM
NCCCC[C@H](NC(=O)[C@H](Cc1ccccc1)NC(=O)[C@H](CCCN=C(N)N)NC(=O)[C@H](CCCCN)NC(=O)[C@H](CCCCN)NC(=O)[C@H](CCCN=C(N)N)NC(=O)[C@@H](N)CCCCN)C(=O)N[C@@H](Cc1c[nH]c2ccccc12)C(=O)N[C@@H](Cc1c[nH]c2ccccc12)C(=O)O [KRKKRFKWW]	20.6 (≈ 28.1 µg/mL)	≥ 115	20.6 (≈ 28.1 µg/mL)	10.3 (≈ 14 µg/mL)	2.6 (≈ 3.54 µg/mL)	2.6 (≈ 3.54 µg/mL)	41.2 (≈ 56.1 µg/mL)	–	–
CC[C@H](C)[C@H](NC(=O)[C@@H]1CCCN1C(=O)[C@H](CCCN=C(N)N)NC(=O)[C@H](CCCN=C(N)N)NC(=O)[C@H](CCCN=C(N)N)NC(=O)[C@@H](NC(=O)[C@@H]1CCCN1C(=O)[C@@H]1CCCN1C(=O)[C@H](CCCN=C(N)N)NC(=O)[C@H](Cc1ccccc1)NC(=O)[C@@H](N)CCCN=C(N)N)[C@@H](C)CC)C(=O)N[C@@H](CCCN=C(N)N)C(=O)N1CCC[C@H]1C(=O)N1CCC[C@H]1C(=O)N[C@@H](Cc1ccccc1)C(=O)N[C@@H](Cc1ccc(O)cc1)C(=O)N1CCC[C@H]1C(=O)O [RFRPPIRRRPIRPPFYP]	–	–	–	–	–	–	–	–	MIC (Escherichia coli BW25113): 8 µM (≈ 17.8 µg/mL)
CC[C@H](C)[C@H](NC(=O)[C@@H]1CCCN1C(=O)[C@H](Cc1c[nH]c2ccccc12)NC(=O)[C@H](CCCN=C(N)N)NC(=O)[C@H](Cc1ccccc1)NC(=O)[C@@H](N)CCCN=C(N)N)C(=O)N[C@@H](CCCN=C(N)N)C(=O)N[C@@H](CCCN=C(N)N)C(=O)N[C@@H](CCCN=C(N)N)C(=O)N1CCC[C@H]1C(=O)N[C@H](C(=O)N[C@@H](CCCN=C(N)N)C(=O)N1CCC[C@H]1C(=O)N1CCC[C@H]1C(=O)N[C@@H](Cc1ccccc1)C(=O)N[C@@H](Cc1ccc(O)cc1)C(=O)N[C@@H](Cc1c[nH]c2ccccc12)C(=O)O)[C@@H](C)CC [RFRWPIRRRPIRPPFYW]	–	–	–	–	–	–	–	–	MIC (Escherichia coli BW25113): 4 µM (≈ 9.6 µg/mL)
CC[C@H](C)[C@H](NC(=O)[C@H](CCCN=C(N)N)NC(=O)[C@H](C)NC(=O)[C@H](CC(C)C)NC(=O)CN)C(=O)N[C@H](C(=O)N[C@H](C(=O)N[C@H](C(=O)N[C@@H](CCCN=C(N)N)C(=O)N[C@H](C(=O)N[C@@H](C)C(=O)N[C@@H](CCCN=C(N)N)C(N)=O)C(C)C)[C@@H](C)CC)C(C)C)C(C)C [GLARIVVIRVAR]	12.1 (≈ 16 µg/mL)	≥ 94.5	≥ 47.6	23.4 (≈ 31 µg/mL)	12.1 (≈ 16 µg/mL)	47.6 (≈ 63 µg/mL)	94.5 (≈ 125 µg/mL)	–	–
CC[C@H](C)[C@H](N)C(=O)N[C@@H](CC(C)C)C(=O)N[C@@H](CCCN=C(N)N)C(=O)N[C@@H](Cc1c[nH]c2ccccc12)C(=O)N[C@@H](CCCCN)C(=O)N[C@@H](Cc1c[nH]c2ccccc12)C(=O)N[C@@H](CCCN=C(N)N)C(=O)N[C@@H](Cc1c[nH]c2ccccc12)C(=O)N[C@@H](Cc1c[nH]c2ccccc12)C(=O)N[C@@H](CCCN=C(N)N)C(=O)N[C@@H](Cc1c[nH]c2ccccc12)C(=O)N[C@@H](CCCN=C(N)N)C(=O)N[C@@H](CCCN=C(N)N)C(=O)O [ILRWKWRWWRWRR]	1.4 (≈ 2.92 µg/mL)	5.7 (≈ 11.9 µg/mL)	2.9 (≈ 6.05 µg/mL)	2.9 (≈ 6.05 µg/mL)	0.7 (≈ 1.46 µg/mL)	0.7 (≈ 1.46 µg/mL)	5.7 (≈ 11.9 µg/mL)	–	–

Second part, led by results:

MIC (Escherichia coli UB1005) [µM]	MIC [1] [µM]	MIC [2] [µM]	MIC [3] [µM]	MIC [4] [µM]	MIC [5] [µM]	MIC (Candida albicans) [µM]	MIC [6] [µM]	SMILES	also measured
–	–	–	–	–	> 200	–	≥ 50	CC[C@H](C)[C@H](NC(=O)CN)C(=O)NCC(=O)N[C@@H](CCCCN)C(=O)N[C@@H](Cc1ccccc1)C(=O)N[C@@H](CC(C)C)C(=O)N[C@@H](Cc1cnc[nH]1)C(=O)N[C@@H](CO)C(=O)N[C@@H](C)C(=O)NCC(=O)N[C@@H](CCCCN)C(=O)N[C@@H](Cc1ccccc1)C(=O)NCC(=O)N[C@@H](CCCCN)C(=O)N[C@@H](C)C(=O)N[C@@H](Cc1ccccc1)C(=O)N[C@@H](CC(C)C)C(=O)NCC(=O)N[C@@H](CCC(=O)O)C(=O)N[C@H](C(=O)N[C@@H](CCSC)C(=O)N[C@@H](CCCCN)C(=O)N[C@@H](CO)C(=O)O)C(C)C [GIGKFLHSAGKFGKAFLGEVMKS]	MIC [13]: 50 µM (≈ 120 µg/mL); MIC [14]: ≥ 100 µM
–	–	–	–	–	25 (≈ 67.6 µg/mL)	–	25 (≈ 67.6 µg/mL)	CSCC[C@H](NC(=O)[C@H](Cc1ccccc1)NC(=O)[C@H](CCCCN)NC(=O)CNC(=O)[C@H](C)NC(=O)[C@H](C)NC(=O)[C@H](CCCCN)NC(=O)[C@H](CC(C)C)NC(=O)CNC(=O)[C@H](Cc1ccccc1)NC(=O)[C@H](CCCCN)NC(=O)[C@H](CC(C)C)NC(=O)[C@H](C)NC(=O)[C@H](CCCCN)NC(=O)CNC(=O)[C@H](CC(C)C)NC(=O)[C@H](CC(C)C)NC(=O)[C@H](CO)NC(=O)CNC(=O)[C@H](CC(C)C)NC(=O)CN)C(=O)NCC(=O)NCC(=O)N[C@@H](CCC(=O)O)C(=O)N1CCC[C@H]1C(=O)N[C@@H](CCC(N)=O)C(=O)N[C@@H](CCC(N)=O)C(=O)O [GLGSLLGKALKFGLKAAGKFMGGEPQQ]	–
–	–	–	–	–	32.8 (≈ 125 µg/mL)	–	16.4 (≈ 62.5 µg/mL)	CC[C@H](C)[C@H](NC(=O)CN)C(=O)N[C@@H](Cc1ccccc1)C(=O)N[C@@H](CO)C(=O)N[C@@H](CC(C)C)C(=O)N[C@H](C(=O)N[C@@H](CCCCN)C(=O)NCC(=O)N[C@@H](C)C(=O)N[C@@H](C)C(=O)N[C@@H](CCC(N)=O)C(=O)N[C@@H](CC(C)C)C(=O)N[C@H](C(=O)NCC(=O)N[C@@H](CCCCN)C(=O)N[C@H](C(=O)N[C@H](C(=O)N[C@@H](C)C(=O)N[C@@H](CCCCN)C(=O)N[C@@H](CCC(=O)O)C(=O)N[C@@H](C)C(=O)NCC(=O)N[C@@H](CCCCN)C(=O)N[C@H](C(=O)NCC(=O)N[C@@H](CC(C)C)C(=O)N[C@@H](CCC(=O)O)C(=O)N[C@@H](CC(C)C)C(=O)N[C@@H](CCSC)C(=O)N[C@@H](C)C(=O)N[C@H]1CSSC[C@@H](C(=O)O)NC(=O)[C@H](CCC(N)=O)NC(=O)[C@H](CCCCN)NC(=O)[C@H]([C@@H](C)O)NC(=O)[C@H](C(C)C)NC(=O)[C@H](CCCCN)NC1=O)[C@@H](C)O)C(C)C)[C@@H](C)O)[C@@H](C)CC)[C@@H](C)CC [GIFSLIKGAAQLIGKTVAKEAGKTGLELMACKVTKQC]	–
